# Results: patent US6706663B2, “Herbicidal 3-heterocyclic substituted benzisothiazole and benzisoxazole compounds” (Wyeth, priority 2000, dated 2004)
# Columns and labels:
# [1] = system: SAGPY (Sagittaria pygmaea); experiment: Flooded paddy, preemergence weed control; format: in vivo, L.; settings: rated 3-4 weeks after treatment, 0-9 rating scale
# Summary of the method: (§1)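 Seeds or propagating organs were sown in the top 0.5 cm of silt loam soil, flooded, and the water kept 1.5 to 3 cm above the soil surface throughout. Plants were grown in the greenhouse and rated visually on a 0-9 scale against a control.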
# CYPIR (Cyperus iria) = experiment: Flooded paddy, preemergence weed control; format: in vivo; settings: rated 3-4 weeks after treatment, 0-9 rating scale
# Summary of the method: as §1
# [2] = system: ECHORC (Echinochloa oryzoides); experiment: Flooded paddy, preemergence weed control; format: in vivo, Echinochloa oryzoides (Ard.) Fritsch.; settings: rated 3-4 weeks after treatment, 0-9 rating scale
# Summary of the method: as §1
# [3] = system: GLXMAW (Soybean, Williams); experiment: Preemergence herbicidal evaluation; format: in vivo, Glycine max, (L.) Merr. cv Williams; settings: preemergence, rated 4-5 weeks after treatment
# ZEAMX (Corn, Field) = experiment: Postemergence herbicidal evaluation; format: in vivo, Zea mays, L.
# Summary of the method: (§2)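 Seedlings grown for about two weeks were sprayed postemergence and then kept under standard greenhouse care. Injury was rated visually 4–5 weeks after treatment on a 0–9 scale against untreated controls, and ratings from repeat tests were averaged.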
# ORYSAT (Rice, Tebonnet) [4] = experiment: Preemergence herbicidal evaluation; format: in vivo, Oryza sativa, (L.) Tebonnet; settings: preemergence, rated 4-5 weeks after treatment
# ORYSAT (Rice, Tebonnet) [5] = experiment: Postemergence herbicidal evaluation; format: in vivo, Oryza sativa, (L.) Tebonnet
# Summary of the method: as §2
# [6] = system: AMBEL (Ambrosia artemisifolia); experiment: Postemergence herbicidal evaluation; format: in vivo, L.
# Summary of the method: as §2
# [7] = system: CHEAL (Chenopodium album); experiment: Postemergence herbicidal evaluation; format: in vivo, L.
# Summary of the method: as §2
# [8] = system: CASOB (Cassia obtusifolia); experiment: Postemergence herbicidal evaluation; format: in vivo, L.
# Summary of the method: as §2
# [9] = system: IPOHE (Ipomoea hederacea); experiment: Preemergence herbicidal evaluation; format: in vivo, (L.) Jacq.; settings: preemergence, rated 4-5 weeks after treatment
# [10] = system: TRZAWR (Wheat, Winter, cv Riband); experiment: Preemergence herbicidal evaluation; format: in vivo, Triticum aestivum; settings: preemergence, rated 4-5 weeks after treatment
# Summary of the method: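 Seeds mixed with potting soil were planted atop about one inch of soil, then sprayed with test compound in aqueous acetone. Cups were kept in the greenhouse and rated visually 4–5 weeks after treatment on a 0–9 scale against untreated control.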
# [11] = system: ECHCG (Echinochloa crus-galli); experiment: Postemergence herbicidal evaluation; format: in vivo, (L.) Beau
# Summary of the method: as §2
SMILES,"herbicidal rating, SAGPY ([1]; rate 0.0320 kg/ha)","herbicidal rating, SAGPY ([1]; rate 0.1250 kg/ha)","herbicidal rating, CYPIR (CYPIR (Cyperus iria); rate 0.0320 kg/ha)","herbicidal rating, CYPIR (CYPIR (Cyperus iria); rate 0.1250 kg/ha)","herbicidal rating, ECHORC ([2]; rate 0.0320 kg/ha)","herbicidal rating, ECHORC ([2]; rate 0.1250 kg/ha)",GLXMAW preemergence herbicidal rating ([3]; Rate 0.0620 kg/ha),GLXMAW preemergence herbicidal rating ([3]; Rate 0.1250 kg/ha),GLXMAW preemergence herbicidal rating ([3]; Rate 0.2500 kg/ha),"Postemergence herbicidal rating, ZEAMX (ZEAMX (Corn, Field); rate 0.0320 kg/ha)","Postemergence herbicidal rating, ZEAMX (ZEAMX (Corn, Field); rate 0.0620 kg/ha)","ORYSAT preemergence herbicidal rating (ORYSAT (Rice, Tebonnet) [4]; Rate 0.0620 kg/ha)","ORYSAT preemergence herbicidal rating (ORYSAT (Rice, Tebonnet) [4]; Rate 0.1250 kg/ha)","ORYSAT preemergence herbicidal rating (ORYSAT (Rice, Tebonnet) [4]; Rate 0.2500 kg/ha)","Postemergence herbicidal rating, ORYSAT (ORYSAT (Rice, Tebonnet) [5]; rate 0.0320 kg/ha)","Postemergence herbicidal rating, ORYSAT (ORYSAT (Rice, Tebonnet) [5]; rate 0.0620 kg/ha)","Postemergence herbicidal rating, AMBEL ([6]; rate 0.0320 kg/ha)","Postemergence herbicidal rating, AMBEL ([6]; rate 0.0620 kg/ha)","Postemergence herbicidal rating, CHEAL ([7]; rate 0.0320 kg/ha)","Postemergence herbicidal rating, CHEAL ([7]; rate 0.0620 kg/ha)",other results
"Cc1ccsc1-c1nsc2ccc(-n3c(=O)cc(C(F)(F)F)n(C)c3=O)cc12 [Compound 4, 1-methyl-3-[3-(3-methyl-2-thienyl)-1,2-benzisothiazol-5-yl]-6-(trifluoromethyl)uracil]",2.0,5.5,9.0,9.0,9.0,9.0,2.7,4.4,6.0,4.4,4.5,1.4,1.9,2.8,2.8,3.8,8.1,8.3,9.0,9.0,"herbicidal rating, SAGPY ([1]; rate 0.0080 kg/ha): 0.0; herbicidal rating, CYPIR (CYPIR (Cyperus iria); rate 0.0080 kg/ha): 2.0; herbicidal rating, ECHORC ([2]; rate 0.0080 kg/ha): 4.0; Postemergence herbicidal rating, ZEAMX (ZEAMX (Corn, Field); rate 0.1250 kg/ha): 5.0; Postemergence herbicidal rating, ORYSAT (ORYSAT (Rice, Tebonnet) [5]; rate 0.1250 kg/ha): 4.5; Postemergence herbicidal rating, AMBEL ([6]; rate 0.1250 kg/ha): 9.0; Postemergence herbicidal rating, CHEAL ([7]; rate 0.1250 kg/ha): 9.0; Postemergence herbicidal rating, CASOB ([8]; rate 0.0320 kg/ha): 5.2; Postemergence herbicidal rating, CASOB ([8]; rate 0.0620 kg/ha): 6.2; Postemergence herbicidal rating, CASOB ([8]; rate 0.1250 kg/ha): 9.0; IPOHE preemergence herbicidal rating ([9]; Rate 0.0620 kg/ha): 4.7; IPOHE preemergence herbicidal rating ([9]; Rate 0.1250 kg/ha): 6.3; IPOHE preemergence herbicidal rating ([9]; Rate 0.2500 kg/ha): 7.6; TRZAWR preemergence herbicidal rating ([10]; Rate 0.0620 kg/ha): 1.2; TRZAWR preemergence herbicidal rating ([10]; Rate 0.1250 kg/ha): 2.5; TRZAWR preemergence herbicidal rating ([10]; Rate 0.2500 kg/ha): 4.3; Postemergence herbicidal rating, ECHCG ([11]; rate 0.0320 kg/ha): 2.0; Postemergence herbicidal rating, ECHCG ([11]; rate 0.0620 kg/ha): 2.8; Postemergence herbicidal rating, ECHCG ([11]; rate 0.1250 kg/ha): 1.7"
"Cn1ccnc1-c1nsc2ccc(-n3c(=O)cc(C(F)(F)F)n(C)c3=O)cc12 [Compound 5, 1-methyl-3-[3-(1-methylimidazol-2-yl)-1,2-benzisothiazol-5-yl]-6-(trifluoromethyl)uracil]",0.0,0.0,0.0,7.0,0.0,2.0,2.0,3.5,6.5,4.5,5.5,3.0,5.0,7.5,2.0,3.0,2.0,9.0,0.0,2.0,"Postemergence herbicidal rating, CASOB ([8]; rate 0.0320 kg/ha): 0.0; Postemergence herbicidal rating, CASOB ([8]; rate 0.0620 kg/ha): 2.0; IPOHE preemergence herbicidal rating ([9]; Rate 0.0620 kg/ha): 4.0; IPOHE preemergence herbicidal rating ([9]; Rate 0.1250 kg/ha): 9.0; IPOHE preemergence herbicidal rating ([9]; Rate 0.2500 kg/ha): 9.0; TRZAWR preemergence herbicidal rating ([10]; Rate 0.0620 kg/ha): 5.0; TRZAWR preemergence herbicidal rating ([10]; Rate 0.1250 kg/ha): 7.0; TRZAWR preemergence herbicidal rating ([10]; Rate 0.2500 kg/ha): 8.0; Postemergence herbicidal rating, ECHCG ([11]; rate 0.0320 kg/ha): 0.0; Postemergence herbicidal rating, ECHCG ([11]; rate 0.0620 kg/ha): 0.0"
